The values below come from article PMC6016400 (Journal of medicinal chemistry, 2017).

Assay [1] relates to R0 conformation of the human PTHR1. Particulars: cited from earlier work.
For another assay, the target named is T1, hPTHR1 (Homo sapiens, UniProt Q03431).
T1 sequence (Q03431 27-593): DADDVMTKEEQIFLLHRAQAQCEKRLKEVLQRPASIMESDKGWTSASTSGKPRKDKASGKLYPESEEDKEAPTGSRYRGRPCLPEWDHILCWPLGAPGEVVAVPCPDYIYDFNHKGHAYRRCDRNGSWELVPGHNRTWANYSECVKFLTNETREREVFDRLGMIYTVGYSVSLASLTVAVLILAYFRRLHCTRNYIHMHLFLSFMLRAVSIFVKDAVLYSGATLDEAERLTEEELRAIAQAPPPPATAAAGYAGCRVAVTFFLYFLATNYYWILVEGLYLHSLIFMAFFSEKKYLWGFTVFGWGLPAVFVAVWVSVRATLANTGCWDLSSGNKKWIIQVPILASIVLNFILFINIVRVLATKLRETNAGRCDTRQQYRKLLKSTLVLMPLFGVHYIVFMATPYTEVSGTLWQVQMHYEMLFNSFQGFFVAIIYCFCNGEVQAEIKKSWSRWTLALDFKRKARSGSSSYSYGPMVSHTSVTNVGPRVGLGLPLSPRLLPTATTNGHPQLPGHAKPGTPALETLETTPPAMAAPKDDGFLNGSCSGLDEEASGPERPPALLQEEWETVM
Description: cAMP induction. The class given is cell-based. To be noted: Table 1; ratio of cAMP EC50 values, hPTHR1, GP2.3 cells.

The subject of the next assay is CD1 mice. Particulars: subcutaneous injection; cited from earlier work.

In the case of M-PTH(1-34) [Peptide 27], the “binding to the R0 state of PTHR1, rank in words, earlier studies” value in assay [1] is “binds even more tightly than does 1”. The “Derivative EC50/PTH(1-34) EC50” value at hPTHR1 came to 4.2. In the assay with CD1 mice, the “duration of calcemic effect in mice, earlier studies” value is listed as “long-lasting calcemic effect”.
